According to patent US11612652B2, “Lipids as synthetic vectors to enhance antigen processing and presentation ex-vivo in dendritic cell therapy” (PDS Biotechnology Corporation, priority 2015, dated 2023):
“Also recorded” adds a separate entry of the source.

Legend:
BMDC / OT-1 CD8+ T cells = experiment: OT1 T cell proliferation (3H-thymidine uptake), cross-presentation of OVA by BMDC on MHC class I; type: cell-based, mouse; settings: for uptake and cross-presentation of OVA by BMDC, OT1 proliferation, CPM of 3H-thymidine uptake: whole OVA and various lipid concentrations, 30 min, three day culture
Description: In the second method, T cells from a TCR transgenic mice (OT-1) were used in which all T cells are specific for an internal peptide of OVA. These T cells will only proliferate if presented with DC which have processed OVA and presented an OVA peptide on MHC class I molecules.
Thus, this represents a stringent assay for cross presentation. BMDC were incubated with different concentrations of the whole OVA protein in the presence or absence of two cationic lipids, either DOTAP or DOTMA for 1 hr at 37° C. The DC were then washed, fixed and added to the OVA peptide specific T cells. […] This response was dose dependent with respect to the OVA concentration, and was even apparent when DC were incubated with OVA at 4° C.
To examine the effect of other cationic lipids and neutral lipids on antigen uptake and cross presentation, BMDC were incubated in the presence of the whole OVA protein and various concentrations of DOTAP DOTMA, DOPC, DOEPC or DDA for 30 min at 37° C. or 4° C. DC were then washed and added to OT1 splenocytes (TCR transgenic T cells specific for the class I restricted OVA peptide […] (SEQ ID NO: 2)) in microtiter plates and cultured for three days at 37° C. […] Control cultures contained OT1 splenocytes and […] (SEQ ID NO: 2) only which bypasses the need for antigen processing.

[1] = previous reported studies; cited from earlier work
[2] = tested on: BMDC (CD11c positive cells); experiment: DQ-OVA uptake and processing by BMDC, flow cytometry; type: cell-based, mouse; settings: for enhancement of DQ-OVA uptake and processing compared with known adjuvants (red fluorescence): one hour, 25 μM DOTAP nanoparticles, 10 μg/ml LPS or media alone
Description: In order to determine the effects of cationic lipids on antigen uptake and processing by dendritic cells ex-vivo, a fluorescent ovalbumin protein called DQ-OVA was used. DQ-OVA is non-fluorescent when intact, but emits both red and green fluorescence when the protein is degraded. BMDC were incubated at 37° C. or 4° C. for 1 hr with DQ-OVA alone, or DQ-OVA mixed with different concentrations of the cationic lipid DOTAP. The cells were then washed, fixed, and stained with fluorescent antibodies to CD11c, a marker for dendritic cells. Cells were then analyzed on an LSRII flow cytometer in both red and green fluorescent channels.
This represents the well-known mannose receptor mediated uptake of OVA by DC. […] Graphical representation of the fluorescent uptake of DQ-OVA into BMDC measured by flow cytometry.
This uptake and processing was inhibited at 4° C. confirming that active cytoskeletal rearrangements are required for this type of uptake. […] The effect of R-DOTAP was concentration dependent with 50 uM showing the greatest effect. To determine if the R-DOTAP enhancement of protein uptake is cell dependent, a mouse epithelial cell line was incubated with DQ-OVA under identical conditions as the BMDC. […] Further, they indicate that this enhancement is selective for dendritic cells and not other, non-antigen presenting cell types.
In order to determine whether lipid adjuvants could mediate the same effect as R-DOTAP, BMDC were incubated with DQ-OVA in media alone or with R-DOTAP as described for FIG. 1. In addition, BMDC were incubated under identical conditions with the potent lipid adjuvant lipopolysaccharide (LPS). Mouse bone marrow DC were incubated in the presence of fluorescent DQ-OVA for one hour at either 37° C. or 4° C./azide in the presence of 25 μM DOTAP nanoparticles, 10 μg/ml LPS or media alone, and analyzed by flow cytometry. […] Monophorphoryl lipid-A (MPL) is a lower toxicity derivative of LPS that is now an FDA approved adjuvant in several vaccines.

[3] = tested on: HPV16-specific CD8+ T-cells; experiment: IFN-gamma ELISPOT of splenocytes after vaccination with KF18 HPV peptide formulations; type: in vivo, C57 black mice; settings: vaccinated Day 0 and Day 7, sacrificed Day 14
Description: C57 black mice were vaccinated with various formulations: […]
Group 1: KF18 HPV peptide ([…]) (SEQ ID NO: 4)
Group 2: KF18 HPV peptide+R-DOTAP liposomes
Group 3: KF18 HPV peptide+S-DOTAP liposomes
Group 4: KF18 peptide+MPL/Alum adjuvant
5 mice per group were injected with the various formulations. The mice were vaccinated on Day 0 and Day 7 and sacrificed on Day 14. The splenocytes were removed and ELISPOT studies performed. The splenocytes were stimulated with the peptide […] (RF9) (SEQ ID NO: 5), the HPV16 CD8+ T-cell epitope peptide recognized by the C57 mice. […] An additional example of this effect is observed with the cationic lipid DDA. […] However, it has been reported that in order to induce strong antigen-specific T-cell responses that DDA is used in combination with strong adjuvants (Brandt L. et al, ESAT-6 Subunit Vaccination against Mycobacterium tuberculosis, Infect Immun. 2000 February; 68(2): 791-795).

TC-1 tumors = experiment: Established TC-1 tumor model: tumor microenvironment, tumor volume, ELISPOT; type: in vivo, C57 mice
Description: C57 mice were divided into the following groups of 8 mice per group: R-DOTAP+HPV16 E7 peptide KF18 ([…]) (SEQ ID NO: 4) , GM-CSF+HPV16 E7 peptide KF18, R-DOTAP, GM-C SF, HPV16 E7 peptide KF18, untreated. 1×10^5 TC-1 tumor cells were injected into the flank of the mice on day 0. The various formulations were administered on Days 12 and 19 after tumor implantation. On day 19 4-5 mice per group were sacrificed and a number of evaluations performed to evaluate the immunology of the tumor microenvironment.
RF9 specific dextramer staining and flow cytometry were utilized to quantify the number of HPV-specific CD8+ T-cells that had infiltrated into the tumor micro-environment. The study quantified the number of CD8+ T cells specific to the mouse epitope RF9. These CD8+ T cells were measured as a percentage of all immune cells (CD45, CD3 and CD8) present in the tumor. Antigen specific T cells infiltrating into the tumor were measured using RF9 specific dextramers by flow cytometry. […] Data represents mean±SEM of 4-5 mice in each group.
On Day 19 flow cytometry was used to study the immuno-suppressive tumor microenvironment, specifically the regulatory T cell population. T regulatory cells (CD45+CD3+CD4+CD25+Foxp3+) cells infiltrated into tumors on day 14 and day 19.
Of critical importance to the clinical efficacy of any immunotherapy is the ratio of immune suppressive cells to tumor targeting CD8+ T cells within the tumor microenvironment. A lower ratio of immune suppressor cells to CD8+ T cells promotes improved prognosis for anti-tumor benefit. […] Cationic lipids appear to promote the preferential expansion of the right phenotype of effector T-cells in preference to Tregs.
The various formulations were evaluated for their impact on the established TC-1 tumors in the same study. […] Tumor volumes were measured using calipers. The naïve mice group are tumor bearing mice that remained untreated. The HPV16 E7 peptide used in the vaccine is KF18. […]
In this study, IFN-γ ELISPOT studies were also performed to quantify and understand the “quality” of tumor-specific T-cell generated. […]

[4] = tested on: serum cytokines and chemokines; experiment: Systemic cytokines in serum after vaccination, Luminex Mouse cytokine 20-plex panel; type: in vivo, Human HLA-A2 mice
Description: This study therefore focused on an evaluation of the systemic presence of cytokines after subcutaneous administration of cationic lipid vaccines. Human HLA-A2 mice that could recognize human HPV antigens were administered high and low doses of R-DOTAP+antigen.
Group 1: • Vaccinate mice with 100 μL of a 1:1 mixture of high dose R-DOTAP (3.4 mg/mL) and sucrose solution.
Group 2: • Vaccinate with 50 μg LPS as a positive control for cytokine induction
Group 3: • Vaccinate mice with 100 μL of high dose R-DOTAP+HPV antigens (1:1 Mixture of RDOTAP 3.4 mg/mL, and HPVMix 0.14 mg/mL)
Group 4: • Vaccinate mice with 100 μL of low dose R-DOTAP+HPV antigens (1:1 Mixture of RDOTAP 0.34 mg/mL, and HPVMix 0.14 mg/mL)
After a single vaccination all mice were bled as follows:
Approximately 200 μL of blood was withdrawn from each mouse at the above specified time points.
The cytokine analysis was performed by Luminex Assay following the manufacturer's instructions.
As a positive control, the mice were also vaccinated with the well-studied toll-like-receptor (TLR) agonist lipopolysaccharide (LPS).
Study Results:Mouse serum was analyzed using a Luminex Mouse cytokine 20-plex panel (cytokines listed below). Cytokine intensity levels were quantitated by comparing to a cytokine standard run in the same plate using Luminex software. […]

For `CCCCCCCCCCCCCCCCCC[N+](C)(C)CCCCCCCCCCCCCCCCCC` [DDA], the “observation on dilution with OVA” value (BMDC / OT-1 CD8+ T cells) is given as “formed a precipitate when diluted with OVA”, the “uptake and cross-presentation of OVA by BMDC, OT1 proliferation, CPM of 3H-thymidine uptake” value (shortened to “uptake and cross-presentation of OVA”) (BMDC / OT-1 CD8+ T cells) is given as “facilitated enhanced uptake and cross-presentation of OVA by BMDC; also recorded: showed strong enhancement of antigen presentation; also recorded: facilitate antigen uptake and presentation” and the “in vivo antigen-specific immune responses” value [1] is given as “neither S-DOTAP nor DDA induced effective in vivo antigen-specific immune responses”.
In the case of `CCCCCCCC/C=C\CCCCCCCC(=O)OC[C@@H](COP(=O)(OCC)OCC[N+](C)(C)C)OC(=O)CCCCCCC/C=C\CCCCCCCC` (stereo partly drawn) [DOEPC, 1,2-dioleoyl-sn-glycero-3-ethylphosphocholine], the “uptake and cross-presentation of OVA” value (BMDC / OT-1 CD8+ T cells) is reported as “facilitated enhanced uptake and cross-presentation of OVA by BMDC; also recorded: showed strong enhancement of antigen presentation”.
For `CCCCCCCC/C=C\CCCCCCCC(=O)OC[C@H](COP(=O)([O-])OCC[N+](C)(C)C)OC(=O)CCCCCCC/C=C\CCCCCCCC` [DOPC, reference compound], the “uptake and cross-presentation of OVA” value (BMDC / OT-1 CD8+ T cells) was “also facilitated uptake and presentation; also recorded: showed some enhancement”.
With `CCCCCCCC/C=C\CCCCCCCC(=O)OCC(C[N+](C)(C)C)OC(=O)CCCCCCC/C=C\CCCCCCCC` (stereo not drawn) [DOTAP, 1,2-dioleoyl-3-trimethylammonium propane] the “cross presentation of OVA to CD8+ T cells, CPM of 3H-thymidine uptake” value (BMDC / OT-1 CD8+ T cells; BMDC with whole OVA, 1 hr at 37° C., washed, fixed) was “cross presented antigen to the CD8+ T cells much more strongly than DC incubated with OVA without cationic lipid”, the “uptake and cross-presentation of OVA” value (BMDC / OT-1 CD8+ T cells) was “facilitated enhanced uptake and cross-presentation of OVA by BMDC; also recorded: showed some enhancement” and the “DQ-OVA uptake and processing, mean green fluorescence of CD11c positive cells” value ([2]; 37° C., 1 hr, versus DQ-OVA alone) was “enhances antigen uptake and processing by DC”.
For `CCCCCCCC/C=C\CCCCCCCC(=O)OCC(C[N+](C)(C)C)OC(=O)CCCCCCC/C=C\CCCCCCCC` (stereo not drawn) [S-DOTAP, 1,2-dioleoyl-3-trimethylammonium propane], the “uptake and cross-presentation of OVA” value (BMDC / OT-1 CD8+ T cells) is given as “also facilitated uptake and presentation; also recorded: identical ability to promote antigen uptake, internalization and processing, as well as maturation of dendritic cells”, the “HPV-specific CD8+ T-cell response (ELISPOT, RF9 stimulation)” value [3] is given as “did not result in an enhanced CD8+ T-cell response beyond what was seen with the peptide alone” and the “in vivo antigen-specific immune responses” value [1] is given as “neither S-DOTAP nor DDA induced effective in vivo antigen-specific immune responses”.
For GQAEPDRAHYNIVTF [antigen only], the tumor volume (TC-1 tumors; Day 26, calipers) was “about 200 mm^3” and the “effect on established TC-1 tumors” value (TC-1 tumors; formulations on Days 12 and 19, read Day 26) was “did not induce any tumor regression but inhibited tumor growth”.
For “Monophorphoryl lipid-A [MPL, reference compound]”, the “enhancement of DQ-OVA uptake and processing compared with known adjuvants (red fluorescence)” value [2] was “showed no ability to facilitate protein uptake in BMDC; also recorded: ineffective in promoting antigen uptake compared to both R-DOTAP and S-DOTAP” and the “HPV-specific CD8+ T-cell response (ELISPOT, RF9 stimulation)” value [3] was “significantly lower CD8+ T-cell response compared to R-DOTAP”.
For lipopolysaccharide [LPS], the “enhancement of DQ-OVA uptake and processing compared with known adjuvants (red fluorescence)” value [2] was “no such enhancement was observed”, the “time to systemic spike in cytokine levels” value ([4]; after vaccination) was at most 12 h and the “systemic induction of cytokines and chemokines in serum” value ([4]; single vaccination, pre bleed, 12, 24, 48 hours) was “increases in the systemic levels of IL-12, IP-10, KC, MCP-1 & MIG”.
